Results reported in article PMC12211128, “Safety, tolerability, pharmacokinetic and pharmacodynamic effects of the muscarinic M1 positive allosteric modulator VU0467319 for Alzheimer’s disease: a single ascending-dose study in healthy participants” (Alzheimer's Research & Therapy, 2025).

Assay: Urine pharmacokinetics, single ascending dose and food effect studies
Type: in vivo, human
Conditions: for CLR (renal clearance) / Max_Rate (maximum observed excretion rate) / Total %fe / Total Ae: mean (SD); for Max_Rate (maximum observed excretion rate) / Total %fe / Total Ae / Tmax_Rate: urine; for Tmax_Rate: median (min, max)
Experimental: Blood samples (4 mL) were obtained by direct venipuncture into K2 EDTA tubes at 0.5 h pre-dose and at 0.5, 1, 1.5, 2, 2.5, 3, 5, 7, 9, 12, 24, 26, 28, 36, 48 and 144-hours post-dose. […] Urine samples for PK quantification were collected at pre-dose and 2, 5, 12, 24, 36 and 144-hours post-dose.
Determination of plasma and urine concentrations of VU319 and metabolite VU0481424 (VU424) was carried out in compliance with Good Laboratory Practice using a validated method at Illinois Institute of Technology Research Institute (IITRI) laboratories. Pharmacokinetic endpoints included the following VU319 parameters for plasma: area under the plasma concentration-time curve (AUC0 − 48); area under the plasma concentration-time curve extrapolated to infinity (AUC0−∞); percentage of the extrapolated area under the plasma concentration-time curve (%AUCextrap); maximum observed plasma concentration (Cmax); time (in hours) at which Cmax occurred (Tmax); clearance (Cl/F); elimination half-life (t1/2) and volume of distribution (Vd/F). Pharmacokinetic endpoints for VU319 for urine included the following parameters: renal clearance (CLu); amount excreted in urine (Ae) and percent excreted in urine (Ae%).
Single-dose PK parameters were derived from the plasma time concentrations and urinary concentrations. Pharmacokinetic parameters were summarized for each dose group using standard descriptive statistics. Summary statistics (mean, SD, min, max, coefficient of variation %) were calculated for each PK parameter. Plasma samples collected outside of the permitted windows (± 5 min for 0 to 48 h, inclusive; ±3 h for 72 to 144 h, inclusive) were flagged, footnoted in listings of PK concentration data, and excluded from the summary statistics and mean graphs of concentration data. However, these values were used in the calculation of the PK parameters and were also included in the individual concentration/time listings and figures. In this study, no concentration values were excluded due to implausibility.
Missing pre-dose PK concentrations were imputed as 0 in PK parameter calculations. Otherwise, missing data were not imputed. Actual post-dose sampling times were used in the calculation of plasma PK parameters and in the generation of individual concentration-time profiles. Nominal sampling times were used as a replacement for unknown or missing actual times and for the pre-dose values. Nominal sampling timepoints were used in the generation of mean plots and summary tables. For urine samples, nominal intervals were used. All PK analyses were performed using Statistical Analysis Software (SAS®; SAS Institute Inc., Cary, NC) version 9.4.

[1] = VU319 120 mg oral, fasted, food effect study
[2] = VU319 120 mg oral, fed, food effect study

Structure (SMILES): Cn1cc2c(-c3cc(F)c(CN4Cc5ncccc5C4=O)c(F)c3)cccc2n1 [VU319]
- CLR (renal clearance) (VU319 60 mg oral, SAD): 1.25 (0.303) mL/h
- CLR (renal clearance) (VU319 120 mg oral, SAD): 1.16 (0.537) mL/h
- CLR (renal clearance) [1]: 1.24 (0.36) mL/h
- CLR (renal clearance) [2]: 1.48 (0.4) mL/h
- CLR (renal clearance) (VU319 240 mg oral, SAD): 1.13 (0.657) mL/h
- CLR (renal clearance) (VU319 400 mg oral, SAD): 0.97 (0.42) mL/h
- CLR (renal clearance) (VU319 600 mg oral, SAD): 0.673 (0.34) mL/h
- Total %fe (fraction of the dose excreted unchanged in urine) (all dose levels): < 0.1%
- Max_Rate (maximum observed excretion rate) (VU319 60 mg oral, SAD): 0.0024 (0.0012) mg/h
- Total %fe (VU319 60 mg oral, SAD): 0.075 (0.034) %
- Total Ae (VU319 60 mg oral, SAD): 0.045 (0.021) mg
- Tmax_Rate (VU319 60 mg oral, SAD): 3.5 (3.5, 8.5) h
- Max_Rate (maximum observed excretion rate) (VU319 120 mg oral, SAD): 0.0032 (0.0025) mg/h
- Total %fe (VU319 120 mg oral, SAD): 0.051 (0.026) %
- Total Ae (VU319 120 mg oral, SAD): 0.061 (0.032) mg
- Tmax_Rate (VU319 120 mg oral, SAD): 8.5 (3.5, 18.0) h
- Max_Rate (maximum observed excretion rate) [1]: 0.0025 (0.0011) mg/h
- Total Ae [1]: 0.068 (0.026) mg
- Tmax_Rate [1]: 8.5 (3.5, 30) h
- Max_Rate (maximum observed excretion rate) [2]: 0.005 (0.003) mg/h
- Total %fe [2]: 0.075 (0.028) %
- Total Ae [2]: 0.091 (0.034) mg
- Tmax_Rate [2]: 6.0 (1.0, 8.5) h
- Max_Rate (maximum observed excretion rate) (VU319 240 mg oral, SAD): 0.0053 (0.0024) mg/h
- Total %fe (VU319 240 mg oral, SAD): 0.039 (0.017) %
- Total Ae (VU319 240 mg oral, SAD): 0.093 (0.042) mg
- Tmax_Rate (VU319 240 mg oral, SAD): 6.0 (3.5, 18.0) h
- Max_Rate (maximum observed excretion rate) (VU319 400 mg oral, SAD): 0.0056 (0.0018) mg/h
- Total %fe (VU319 400 mg oral, SAD): 0.0297 (0.015) %
- Total Ae (VU319 400 mg oral, SAD): 0.12 (0.058) mg
- Tmax_Rate (VU319 400 mg oral, SAD): 6.0 (3.5, 30.0) h
- Max_Rate (maximum observed excretion rate) (VU319 600 mg oral, SAD): 0.0051 (0.0027) mg/h
- Total %fe (VU319 600 mg oral, SAD): 0.024 (0.011) %
- Total Ae (VU319 600 mg oral, SAD): 0.143 (0.065) mg
- Tmax_Rate (VU319 600 mg oral, SAD): 6.0 (3.5, 42.0) h
